Paper PMC4754833, “Rilpivirine analogs potently inhibit drug-resistant HIV-1 mutants” (Retrovirology, 2016)
Where two headings read alike, the source gives them in different places.

Key:
HIV-1 RT mutant G190S = assay: single round infection assay, G190S; format: cell-based; details: Human immunodeficiency virus 1
Method: (§1) The human osteosarcoma cell line, HOS, was obtained from Dr. Richard Schwartz (Michigan State University, East Lansing, MI) and grown in Dulbecco’s modified Eagle’s medium (Invitrogen, Carlsbad, CA) supplemented with 5 % (v/v) fetal bovine serum, 5 % newborn calf serum, and penicillin (50 units/ml) plus streptomycin (50 µg/ml; Quality Biological, Gaithersburg, MD). Virion production and single-round infectivity assays were used to determine antiviral activity (IC50 values) of the compounds as previously described.
(§2) pNLNgoMIVR-ΔEnv.LUC has been described previously. The RT open reading frame was removed from pNLNgoMIVR-ΔEnv.LUC (digestion with SpeI and SalI) and inserted between the SpeI and SalI sites of pBluescript II KS+. Using that construct as the wild-type template, we prepared the following HIV-1 RT mutants using the QuikChange II XL (Stratagene, La Jolla, CA) site-directed mutagenesis protocol kit: L100I, K103N, Y181C, Y188L, H221Y, K103N/Y181C, G190A, G190S, M230L, P236L, L100I/K103N, K103N/P225H, V106A/G190A/F227L, V106A, L234I, V106A/F227L, V106A/L234I, V106A/F227L/L234I, E40K, D67E, K101E, V111A, E138K, M184I, M184V, K101E/M184I, K101E/M184V, E138K/M184I, E138K/M184V, K101P, Y181I, and K101P/V179I. The following sense oligonucleotides were used with matching cognate antisense oligonucleotides (not shown) (Integrated DNA Technologies, Coralville, IA) in the mutagenesis: L100I, 5′-[…]-3′; L100I 2-103, 5′-[…]-3′; K103N, 5′-[…]-3′; Y181C, 5′-[…]-3′; Y188L, 5′-[…]-3′; H221Y, 5′-[…]-3′; G190A, 5′-[…]-3′; G190S, 5′-[…]-3′; P225H, 5′-[…]-3′; F227, 5′-[…]-3′; M230L, 5′-[…]-3′; P236L, 5′-[…]-3′; V106A, 5′-[…]-3′; L234I, 5′-[…]-3′; E40K, 5′-[…]-3′; D67E, 5′-[…]-3′; K101E, 5′-[…]-3′; V111A, 5′-[…]-3′; E138K, 5′-[…]-3′; M184I, 5′-[…]-3′; M184V, 5′-[…]-3′; K101P, 5′-[…]-3′; Y181I, 5′-[…]-3′; K101P/V179I, 5′-[…]-3′. The double mutants K103N/Y181C, K103N/P225H, and L100I/K103N were made using the previously generated K103N mutant and the appropriate oligonucleotides to add the second mutation, Y181C, P225, and L100I respectively. The double mutants V106A/F227L and V106A/L234I were prepared using the previously generated V106A mutant and the appropriate oligonucleotides to add the second mutation, F227L and L234I, respectively. The double mutants K101E/M184I and K101E/M184V were constructed using the previously generated K101E mutant and the appropriate oligonucleotides to add the second mutation, M184I and M184V, respectively. The double mutants E138K/M184I and E138K/M184V were constructed using the previously generated E138K mutant and the appropriate oligonucleotides for the second mutation, M184I and M184V, respectively. The triple mutant V106A/F227L/L234I was made using the previously generated V106A/F227L double mutant and the appropriate oligonucleotides for the third mutation, L234I. The triple mutant V106A/G190A/F227L was constructed in a series of steps using the previously generated V106A mutant and the appropriate oligonucleotides for the second mutation, G190A, to generate the double mutant V106A/G190A, and then the triple mutant was made using double mutant V106A/G190A and oligonucleotides for the third mutation, F227L. The DNA sequence of each construct was verified by DNA sequence determination. The sequences encoding the mutant RTs were then subcloned into pNLNgoMIVR-ΔEnv.LUC (between the KpnI and SalI sites) to produce the mutant HIV-1 constructs. These DNA sequences were also checked independently by DNA sequence determination.
(§3) 10.1186/s12977-016-0244-2 The IC50 values (nM) of RPV and the RPV analogs were determined against the NNRTI resistant mutants were measured by using a single round infection assay, n = 4. The concentrations (nM) are measured by reductions in luciferase reporter activity followed by the standard deviations. […]

[1] = test system: HIV-1 RT mutant V106A/F227L; assay: single round infection assay, V106A/F227L; format: cell-based; details: for fold-change of IC50 of the mutant relative to WT: V106A/F227L vs WT; for IC50: ± SD, n=4
Method: as §1, §2, §3

[2] = test system: HIV-1 RT mutant E138K/M184V; assay: single round infection assay, E138K/M184V; format: cell-based; details: for fold-change of IC50 of the mutant relative to WT: E138K/M184V vs WT; for IC50: ± SD, n=4
Method: as §1, §2, §3

WT HIV-1 [3] = details: previous study; cited from earlier work
HIV-1 RT mutant K101P = assay: single round infection assay, K101P; format: cell-based; details: for IC50: Human immunodeficiency virus 1; for fold-change of IC50 of the mutant relative to WT: K101P vs WT
Method: as §1, §2, §3

WT HIV-1 [4] = assay: single round infection luciferase assay, WT HIV-1; format: cell-based; details: Human immunodeficiency virus 1
Method: as §1, §2, §3

HIV-1 RT mutant E138K = assay: single round infection assay, E138K; format: cell-based; details: for fold-change of IC50 of the mutant relative to WT: E138K vs WT; for IC50: ± SD, n=4
Method: as §1, §2, §3

[5] = test system: HIV-1 RT mutant E138K/M184I; assay: single round infection assay, E138K/M184I; format: cell-based; details: for fold-change of IC50 of the mutant relative to WT: E138K/M184I vs WT; for IC50: ± SD, n=4
Method: as §1, §2, §3

HIV-1 RT mutant Y181C = test system: HIV-1 RT mutant Y181C; parameters: method as in PMID 23217210; details: previous study; cited from earlier work
HIV-1 RT mutant G190A = assay: single round infection assay, G190A; format: cell-based; details: for IC50: Human immunodeficiency virus 1
Method: as §1, §2, §3

HIV-1 RT mutant Y181I = assay: single round infection assay, Y181I; format: cell-based; details: for IC50: Human immunodeficiency virus 1; for fold-change of IC50 of the mutant relative to WT: Y181I vs WT
Method: as §1, §2, §3

HIV-1 RT mutant M230L = assay: single round infection assay, M230L; format: cell-based; details: for IC50: ± SD, n=4, limit of detection 100 nM; for fold-change of IC50 of the mutant relative to WT: M230L vs WT
Method: as §1, §2, §3

HIV-1 RT mutant K103N = test system: HIV-1 RT mutant K103N; parameters: method as in PMID 23217210; details: previous study; cited from earlier work
[6] = test system: HIV-1 RT mutant K101E/M184I; assay: single round infection assay, K101E/M184I; format: cell-based; details: for IC50: ± SD, n=4; for fold-change of IC50 of the mutant relative to WT: K101E/M184I vs WT
Method: as §1, §2, §3

[7] = Human immunodeficiency virus 1, E138K/M184V
[8] = Human immunodeficiency virus 1, E138K
[9] = Human immunodeficiency virus 1, E138K/M184I
[10] = Human immunodeficiency virus 1, M230L
[11] = Human immunodeficiency virus 1, K101E/M184I
[12] = Human immunodeficiency virus 1, V106A/F227L (selected by DOR)

| SMILES | IC50 (HIV-1 RT mutant G190S) [nM] | fold-change of IC50 of the mutant relative to WT [1] | fold-change of IC50 of the mutant relative to WT [2] | IC50 [2, 7] [nM] | IC50 (WT HIV-1 [3]) [nM] | IC50 (HIV-1 RT mutant K101P) [nM] | IC50 (WT HIV-1 [4]) [nM] | fold-change of IC50 of the mutant relative to WT (HIV-1 RT mutant E138K) | IC50 (HIV-1 RT mutant E138K; E138K) [nM] | IC50 (HIV-1 RT mutant E138K; [8]) [nM] | fold-change of IC50 of the mutant relative to WT [5] | IC50 [5, 9] [nM] | IC50 (HIV-1 RT mutant Y181C) [nM] | IC50 (HIV-1 RT mutant G190A) [nM] | IC50 (HIV-1 RT mutant Y181I) [nM] | IC50 (HIV-1 RT mutant M230L; [10]) [nM] | fold-change of IC50 of the mutant relative to WT (HIV-1 RT mutant M230L) | IC50 (HIV-1 RT mutant K103N) [nM] | IC50 [6, 11] [nM] | fold-change of IC50 of the mutant relative to WT [6] | further results |
| --- | --- | --- | --- | --- | --- | --- | --- | --- | --- | --- | --- | --- | --- | --- | --- | --- | --- | --- | --- | --- | --- |
| Cc1cc(/C=C/C#N)cc(C)c1Nc1nc(Nc2ccc(C#N)cc2)ncc1N [compound 7] | 0.4 ± 0.07 | < 2 | 3 | < 2.5 | < 7 | 9 | 0.78 ± 0.2 | 2 | 1.6 ± 0.07 | < 2.5 | 4 | < 2.5 | < 7 | 0.3 | 19 | < 6.1 | 5 | < 7 | < 2.5 | < 2 | IC50 ([2]; E138K/M184V): 2.4 ± 0.2 nM; fold-change of IC50 of the mutant relative to WT (HIV-1 RT mutant K101P): 12; IC50 ([5]; E138K/M184I): 2.9 ± 0.6 nM; fold-change of IC50 of the mutant relative to WT (HIV-1 RT mutant Y181I): 24; IC50 (HIV-1 RT mutant M230L; M230L): 4 ± 2 nM; IC50 ([6]; K101E/M184I): 1.3 ± 0.6 nM |
| Cc1cc(/C=C/C#N)cc(C)c1Nc1ncc([N+](=O)[O-])c(Nc2ccc(C#N)cc2)n1 [compound 8] | 0.17 ± 0.02 | 4 | < 2 |  | < 7 | 9.9 | 1.6 ± 0.2 | 2 | 3.4 | < 6 | < 2 |  | < 7 | 0.24 ± 0.04 | 74.8 | 11.9 | 7 | < 7 | < 6 | 4 | IC50 [1, 12]: < 5 nM; IC50 ([1]; V106A/F227L (selected by DOR)): 6.3 ± 2 nM; fold-change of IC50 of the mutant relative to WT (HIV-1 RT mutant K101P): 6; fold-change of IC50 of the mutant relative to WT (HIV-1 RT mutant Y181I): 47; IC50 ([6]; K101E/M184I): 6 ± 1.6 nM |
| Cc1cc(/C=C/C#N)cc(C)c1Nc1ncc(N)c(Nc2ccc(C#N)cc2)n1 [compound 9] | 0.6 ± 0.07 | 17 | 4 | < 6 | < 7 | > 100 | 1.3 ± 0.2 | 4 | 5.6 ± 1.4 | < 6 | 2 | < 6 | < 7 | 0.6 | > 100 | 29.6 | 23 | < 7 | < 6 | 3 | IC50 ([2]; E138K/M184V): 5.5 ± 1 nM; IC50 ([5]; E138K/M184I): 3 ± 0.3 nM; IC50 ([6]; K101E/M184I): 3.3 ± 0.85 nM |
| COc1ccc(Cn2cnc3c(Nc4ccc(C#N)cc4)nc(Nc4c(C)cc(/C=C/C#N)cc4C)nc32)cc1 [compound 12] | 0.37 ± 0.02 | 11 | 7 | 4.9 ± 0.99 | < 7 | > 100 | 0.67 ± 0.06 | 12 |  | 7.8 ± 0.64 | 4 | 2.4 ± 0.5 | < 7 | 0.9 ± 0.43 | > 100 | 13.8 | 21 | < 7 | 2.7 ± 0.71 | 4 | IC50 [1, 12]: < 5 nM; IC50 ([1]; V106A/F227L (selected by DOR)): 7.6 ± 0.5 nM; fold-change of IC50 of the mutant relative to WT (HIV-1 RT mutant G190A; G190A vs WT): < 2 |
